According to ChEMBL document CHEMBL1129852, “Peptidyl -keto thiazole as potent thrombin inhibitors” (Bioorg Med Chem Lett, 1997):

Legend:
[1] = molecular target: T1, Serine protease 1 (Bos taurus, UniProt P00760); assay: Inhibition of trypsin
T1 sequence (P00760 whole entry): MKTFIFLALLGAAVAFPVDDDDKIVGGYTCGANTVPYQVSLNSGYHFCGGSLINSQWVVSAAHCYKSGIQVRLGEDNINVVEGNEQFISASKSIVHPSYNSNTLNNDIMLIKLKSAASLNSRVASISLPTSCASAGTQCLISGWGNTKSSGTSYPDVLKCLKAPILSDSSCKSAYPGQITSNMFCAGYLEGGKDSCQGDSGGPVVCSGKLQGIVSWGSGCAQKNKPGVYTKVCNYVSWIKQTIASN

[2] = Relative inhibition of trypsin and thrombin; set-up: reference not given here
[3] = molecular target: Prothrombin (Homo sapiens, UniProt P00734); assay: Inhibition of thrombin
[4] = molecular target: Prolyl endopeptidase (Sus scrofa, UniProt P23687); assay: The compound was tested for the inhibitory activity against prolyl endo peptidase(PEP) enzyme
[5] = The compound was tested for the inhibitory activity against elastase enzyme; type: functional; settings: Homo sapiens

Prolyl endopeptidase, sequence (P23687 whole entry): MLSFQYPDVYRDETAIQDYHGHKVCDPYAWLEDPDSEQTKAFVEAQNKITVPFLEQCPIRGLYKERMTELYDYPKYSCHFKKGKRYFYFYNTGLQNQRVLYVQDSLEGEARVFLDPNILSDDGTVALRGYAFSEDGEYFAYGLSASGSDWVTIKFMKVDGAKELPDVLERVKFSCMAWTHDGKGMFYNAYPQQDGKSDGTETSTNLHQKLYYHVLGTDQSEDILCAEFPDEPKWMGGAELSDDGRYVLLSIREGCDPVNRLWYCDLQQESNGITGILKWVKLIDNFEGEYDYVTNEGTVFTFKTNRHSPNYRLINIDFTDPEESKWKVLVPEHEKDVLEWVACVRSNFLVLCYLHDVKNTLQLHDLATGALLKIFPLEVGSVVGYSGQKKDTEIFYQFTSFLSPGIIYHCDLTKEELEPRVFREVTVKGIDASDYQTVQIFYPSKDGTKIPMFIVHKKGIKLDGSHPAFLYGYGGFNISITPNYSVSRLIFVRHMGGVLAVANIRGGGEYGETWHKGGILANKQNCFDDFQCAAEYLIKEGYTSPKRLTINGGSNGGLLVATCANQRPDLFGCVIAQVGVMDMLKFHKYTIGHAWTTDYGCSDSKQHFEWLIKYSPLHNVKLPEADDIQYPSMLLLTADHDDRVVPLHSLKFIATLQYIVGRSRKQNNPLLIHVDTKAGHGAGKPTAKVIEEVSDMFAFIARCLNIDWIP

| SMILES | IC50 [1] | Ratio [2] | IC50 [3] | IC50 [4] | IC50 [5] |
| --- | --- | --- | --- | --- | --- |
| NCCCC[C@H](NC(=O)[C@@H]1CCCN1C(=O)[C@H](N)Cc1ccccc1)C(=O)c1nccs1 | 1.2 µM | 4.6 | 0.26 µM | – | – |
| N=C(N)NCCC[C@H](NC(=O)[C@@H]1CCCN1C(=O)CCCc1ccccc1)C(=O)c1nccs1 | 0.23 µM | – | 2 µM | 28 µM | > 1000 µM |
| NCCCCC[C@H](NC(=O)[C@@H]1CCCN1C(=O)[C@H](N)Cc1ccccc1)C(=O)c1nccs1 | 16 µM | 1.1 | 14 µM | – | – |
| NC(N)=NCCC[C@@H](NC(=O)[C@@H]1CCCCN1C(=O)[C@H](N)Cc1ccccc1)C(=O)c1nccs1 | – | 56 | – | – | – |
| CC(C)[C@@H](NC(=O)[C@H](N)Cc1ccccc1)C(=O)N[C@@H](CCCN=C(N)N)C(=O)c1nccs1 | – | 21 | – | – | – |
| CC(=O)N[C@H](Cc1ccccc1)C(=O)N1CCC[C@H]1C(=O)N[C@H](CCCN=C(N)N)C(=O)c1nccs1 | – | 0.1 | – | – | – |
| NC(N)=NCCC[C@H](NC(=O)[C@@H]1CCN1C(=O)[C@H](N)Cc1ccccc1)C(=O)c1nccs1 | – | 3 | – | – | – |
| N=C(N)NCCC[C@@H](NC(=O)[C@@H]1CCCN1C(=O)CCc1ccccc1)C(=O)c1nccs1 | 0.23 µM | 0.3 | 0.82 µM | – | – |
| N=C(N)NCCC[C@@H](NC(=O)[C@@H]1CCCCN1C(=O)[C@H](N)Cc1ccccc1)C(=O)c1nccs1 | – | – | 0.73 µM | – | – |
| CC(C)[C@H](NC(=O)[C@@H]1CCCN1C(=O)CCCc1ccccc1)C(=O)c1nccs1 | > 1000 µM | – | > 1000 µM | 7.7 µM | > 1000 µM |
| O=C(c1nccs1)[C@H]1CCCN1C(=O)[C@@H]1CCCN1C(=O)CCCc1ccccc1 | > 1000 µM | – | > 1000 µM | 0.0044 µM | > 1000 µM |
| NC(N)=NCCC[C@H](NC(=O)[C@@H]1CCCN1C(=O)[C@H](N)Cc1ccccc1)C(=O)c1nccs1 | 0.0042 µM | 2.8 | 0.0015 µM | – | – |
| N=C(N)NCCC[C@@H](NC(=O)[C@@H]1CCCN1C(=O)[C@@H](Cc1ccccc1)NC(=O)OCc1ccccc1)C(=O)c1nccs1 | 0.0016 µM | 0.8 | 0.002 µM | – | – |
| C[C@H](NC(=O)[C@@H]1CCCN1C(=O)CCCc1ccccc1)C(=O)c1nccs1 | > 1000 µM | – | > 1000 µM | 0.005 µM | > 1000 µM |
| N=C(N)NCCC[C@H](NC(=O)[C@@H]1CCCCN1C(=O)[C@H](N)Cc1ccccc1)C(=O)c1nccs1 | 41 µM | – | – | – | – |
| N=C(N)NCCC[C@H](NC(=O)[C@@H]1CCN1C(=O)[C@H](N)Cc1ccccc1)C(=O)c1nccs1 | 0.009 µM | – | 0.003 µM | – | – |
| CC(C)[C@@H](NC(=O)[C@H](N)Cc1ccccc1)C(=O)N[C@@H](CCCNC(=N)N)C(=O)c1nccs1 | 0.18 µM | – | 0.0086 µM | – | – |
| CC(=O)N[C@H](Cc1ccccc1)C(=O)N1CCC[C@H]1C(=O)N[C@H](CCCNC(=N)N)C(=O)c1nccs1 | 0.23 µM | – | 2.3 µM | – | – |
| NCCCC[C@H](NC(=O)[C@@H]1CCCN1C(=O)CCCc1ccccc1)C(=O)c1nccs1 | 2.4 µM | – | 46 µM | 7.8 µM | – |
